Experimental findings from PubChem BioAssay AID330 (DTP/NCI, 2004) are described below.

“And” between values parts separate entries of the source, which are not always exact repeats. Equal entries are not always repeated. Inconclusive results and toxic doses are left out.

The experiment deals with P388 leukemia ip, CD2F1 mice, survival T/C. Put plainly: NCI In Vivo Anticancer Drug Screen. Data for tumor model P388 Leukemia (intraperitoneal) in CD2F1 (CDF1) mice. Conditions: endpoint: median survival time, higher = longer survival. In short, it runs like this:
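Mice carrying the transplanted tumor received test compound or vehicle. Survival was recorded in each group, and the value is the treated-group measurement divided by that of the vehicle-treated control group.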

Where [1] appears, read: dose: 25.0 mg/kg/injection, schedule: Q01DX005 (ip), vehicle: saline.
Setting [2] is: dose: 50.0 mg/kg/injection, schedule: Q01DX005 (ip), vehicle: saline.
[3] abbreviates: dose: 6.25 mg/kg/injection, schedule: Q01DX005 (ip), vehicle: Klucel (hydroxypropylcellulose) (HPC).
Setting [4] is: dose: 12.5 mg/kg/injection, schedule: Q01DX005 (ip), vehicle: Klucel (hydroxypropylcellulose) (HPC).
The mark [5] stands for this setting: dose: 25.0 mg/kg/injection, schedule: Q01DX005 (ip), vehicle: Klucel (hydroxypropylcellulose) (HPC).
Setting [6] is: dose: 50.0 mg/kg/injection, schedule: Q01DX009 (ip), vehicle: saline with Tween-80.
[7] abbreviates: dose: 100.0 mg/kg/injection, schedule: Q01DX009 (ip), vehicle: saline with Tween-80.
[8] abbreviates: dose: 200.0 mg/kg/injection, schedule: Q01DX009 (ip), vehicle: saline with Tween-80.
Setting [9] is: dose: 12.5 mg/kg/injection, schedule: Q01DX005 (ip), vehicle: saline.

Consider `Cc1cc(C2CCCCC2)n(O)c(=O)c1`, for which the T/C is 100 % of control under setting [1]; 99 % of control under setting [2]; 106 % of control (dose: 100.0 mg/kg/injection, schedule: Q01DX005 (ip), vehicle: saline).
`CC[C@@H]1O[C@@H]([C@@H]2CC[C@](O)([C@]3(C)CC[C@@H]([C@@H](C)[C@@]4(O)CC[C@H](C)[C@@H](C[C@@]5(O)O[C@@H]([C@@H](C)[C@H](O)C[C@H]6CC[C@H](C)[C@@H]([C@@H](C)C(=O)O)O6)CC[C@@H]5C)O4)O3)O2)CC[C@@]1(C)O`: the T/C by setting is: (dose: 0.12 mg/kg/injection, schedule: Q01DX009 (ip), vehicle: saline with Tween-80) 109 % of control; (dose: 0.25 mg/kg/injection, schedule: Q01DX009 (ip), vehicle: saline with Tween-80) 111 % of control.
As for `CC12CCC(OC3OC(CO)C(O)C(O)C3O)C=C1CCC1C2CCC2(C)C(c3ccc(=O)oc3)CCC12` (stereo not drawn), the T/C reads like this: under setting [3], 95 % of control; under setting [4], 98 % of control; under setting [5], 101 % of control and 98 % of control.
Take `COc1cccc2c1C(=O)c1c(O)c3c(c(O)c1C2=O)CC(O)(C(=O)CBr)CC3OC1CC(OC(C)=O)C(OC(C)=O)C(C)O1` (stereo not drawn): the T/C reads like this: (dose: 3.13 mg/kg/injection, schedule: Q04DX003 (ip), vehicle: distilled water + Tween-80) 108 % of control; (dose: 6.25 mg/kg/injection, schedule: Q04DX003 (ip), vehicle: distilled water + Tween-80) 98 % of control; (dose: 12.5 mg/kg/injection, schedule: Q04DX003 (ip), vehicle: distilled water + Tween-80) 106 % of control; (dose: 25.0 mg/kg/injection, schedule: Q04DX003 (ip), vehicle: distilled water + Tween-80) 109 % of control; (dose: 50.0 mg/kg/injection, schedule: Q04DX003 (ip), vehicle: distilled water + Tween-80) 105 % of control.
As for `Cc1cnc2cc(Cl)ccc2c1Cl`, the T/C is 101 % of control (dose: 50.0 mg/kg/injection, schedule: Q01DX005 (ip), vehicle: Klucel (hydroxypropylcellulose) (HPC)); 100 % of control (dose: 100.0 mg/kg/injection, schedule: Q01DX005 (ip), vehicle: Klucel (hydroxypropylcellulose) (HPC)); 103 % of control (dose: 200.0 mg/kg/injection, schedule: Q01DX005 (ip), vehicle: Klucel (hydroxypropylcellulose) (HPC)).
Take `CCCCNC(=O)N(CC)c1ccccc1`: the T/C by setting is: (dose: 100.0 mg/kg/injection, schedule: Q01DX001 (ip), vehicle: saline) 109 % of control; (dose: 200.0 mg/kg/injection, schedule: Q01DX001 (ip), vehicle: saline) 113 % of control; (dose: 400.0 mg/kg/injection, schedule: Q01DX001 (ip), vehicle: saline) 109 % of control.
As to `CS(=O)(=O)OC1COCOC1C1OCOCC1OS(C)(=O)=O` (stereo not drawn), the T/C is, setting by setting: (dose: 12.5 mg/kg/injection, schedule: Q01DX009 (ip), vehicle: Klucel (hydroxypropylcellulose) (HPC)) 91 % of control; (dose: 25.0 mg/kg/injection, schedule: Q01DX009 (ip), vehicle: Klucel (hydroxypropylcellulose) (HPC)) 92 % of control; (dose: 50.0 mg/kg/injection, schedule: Q01DX009 (ip), vehicle: Klucel (hydroxypropylcellulose) (HPC)) 95 % of control; (dose: 200.0 mg/kg/injection, schedule: Q01DX009 (ip), vehicle: Klucel (hydroxypropylcellulose) (HPC)) 102 % of control.
For `CCCCNCCC(SS)c1ccc(Cl)cc1` (stereo not drawn), the T/C was 110 % of control (dose: 25.0 mg/kg/injection, schedule: Q01DX009 (ip), vehicle: saline with Tween-80); 100 % of control under setting [6]; 100 % of control under setting [7].
Turning to `[Cl][Fe]([Cl])([Cl])[Cl].c1ccc(C[n+]2ccccc2)cc1`, the T/C was 108 % of control (dose: 6.25 mg/kg/injection, schedule: Q01DX009 (ip), vehicle: saline); 104 % of control (dose: 12.5 mg/kg/injection, schedule: Q01DX009 (ip), vehicle: saline); 117 % of control (dose: 25.0 mg/kg/injection, schedule: Q01DX009 (ip), vehicle: saline).
Take `O=C(O)c1ccc(CCCBr)cc1`: the T/C under setting [7] is 105 % of control; the T/C under setting [8] is 100 % of control; the T/C (dose: 400.0 mg/kg/injection, schedule: Q01DX009 (ip), vehicle: saline with Tween-80) is 97 % of control.
Consider `CN(C)CCCOc1nc2c(c(=O)n(C)c(=O)n2C)n1C` (tested in a mixture with another compound), for which the T/C runs as follows: under setting [3], 100 % of control; under setting [4], 106 % of control; under setting [5], 110 % of control.
For the compound `O=C(CBr)c1cc2c(cc1Br)OCO2`, the T/C is 102 % of control (dose: 12.5 mg/kg/injection, schedule: Q01DX001 (ip), vehicle: Klucel (hydroxypropylcellulose) (HPC)); 104 % of control (dose: 25.0 mg/kg/injection, schedule: Q01DX001 (ip), vehicle: Klucel (hydroxypropylcellulose) (HPC)); 103 % of control (dose: 50.0 mg/kg/injection, schedule: Q01DX001 (ip), vehicle: Klucel (hydroxypropylcellulose) (HPC)).
On to `Oc1cc2c3c(c1)c1cc4c(cc1c[n+]3CC2)OCO4`, for which the T/C runs as follows: (dose: 6.25 mg/kg/injection, schedule: Q01DX009 (ip), vehicle: other) 151 % of control; (dose: 10.0 mg/kg/injection, schedule: Q01DX005 (ip), vehicle: acid diluted with saline) 119 % of control; (dose: 12.5 mg/kg/injection, schedule: Q01DX009 (ip), vehicle: other) 155 % of control; (dose: 20.0 mg/kg/injection, schedule: Q01DX005 (ip), vehicle: acid diluted with saline) 119 % of control; (dose: 25.0 mg/kg/injection, schedule: Q01DX009 (ip), vehicle: other) 164 % of control.
For the compound `CCOC(=O)c1ccc(NC(=O)Nc2ccc(N(C)C(C)=O)cc2)cc1`, the T/C by setting is: (dose: 60.0 mg/kg/injection, schedule: Q01DX005 (ip), vehicle: Klucel (hydroxypropylcellulose) (HPC)) 90 % of control; (dose: 120.0 mg/kg/injection, schedule: Q01DX005 (ip), vehicle: Klucel (hydroxypropylcellulose) (HPC)) 90 % of control; (dose: 240.0 mg/kg/injection, schedule: Q01DX005 (ip), vehicle: Klucel (hydroxypropylcellulose) (HPC)) 88 % of control.
As for `O=C1C=CC(=Nc2cc(Cl)c(O)c(Cl)c2)C=C1Cl`, the T/C was 96 % of control under setting [9], 100 % of control under setting [1] and 93 % of control under setting [2].
Regarding `CC1=C(C(=O)N=C(N)C(Cl)(Cl)Cl)SCCO1`, the T/C (dose: 50.0 mg/kg/injection, schedule: Q01DX005 (ip), vehicle: distilled water + alcohol) was 108 % of control; the T/C (dose: 100.0 mg/kg/injection, schedule: Q01DX005 (ip), vehicle: distilled water + alcohol) was 109 % of control; the T/C (dose: 200.0 mg/kg/injection, schedule: Q01DX005 (ip), vehicle: distilled water + alcohol) is 117 % of control.
On to `Cc1ccc(NCCN(C)C)c2c(=O)c3cccc(O)c3sc12`, for which the T/C under setting [6] was 100 % of control, the T/C under setting [7] is 95 % of control and the T/C under setting [8] is 97 % of control.
Regarding `C#CCOCCCC(=C)C`, the T/C runs as follows: (dose: 3.12 mg/kg/injection, schedule: Q01DX005 (ip), vehicle: saline) 103 % of control; (dose: 6.25 mg/kg/injection, schedule: Q01DX005 (ip), vehicle: saline) 99 % of control; under setting [9], 100 % of control; under setting [1], 100 % of control.
On to `CC(=O)Nc1ccc(C(c2c(O)cc(C)[nH]c2=O)c2c(O)cc(C)[nH]c2=O)cc1`, for which the T/C was 104 % of control under setting [6], 112 % of control under setting [7] and 112 % of control under setting [8].
As for `COC(=O)C(=O)C1(c2nc3n(c2O)/C(=N/C(=O)Nc2ccc(Cl)cc2)N=N3)CCCCCC1=O` (stereo not drawn), the T/C is 100 % of control (dose: 60.0 mg/kg/injection, schedule: Q01DX005 (ip), vehicle: saline with Tween-80); 99 % of control (dose: 120.0 mg/kg/injection, schedule: Q01DX005 (ip), vehicle: saline with Tween-80); 94 % of control (dose: 240.0 mg/kg/injection, schedule: Q01DX005 (ip), vehicle: saline with Tween-80).
As to `CC(/C=C/c1ccc(C)cc1)=N\NC(N)=O`, the T/C is 103 % of control (dose: 50.0 mg/kg/injection, schedule: Q01DX005 (ip), vehicle: saline with Tween-80); 102 % of control (dose: 100.0 mg/kg/injection, schedule: Q01DX005 (ip), vehicle: saline with Tween-80); 93 % of control (dose: 200.0 mg/kg/injection, schedule: Q01DX005 (ip), vehicle: saline with Tween-80).
